Data as given in US20250387399A1, “TREATMENT OF A SELECTIVE POPULATION OF PATIENTS HAVING DEMENTIA WITH LEWY BODIES” (EIP Pharma, LLC, priority 2021, published 2025).

Experiments:
Format in all cases: in vivo, human
[1] = tested on: patients with mild-to-moderate DLB; test: AscenD-LB phase 2 study: treatment effect by baseline plasma ptau181 status (all major endpoints)
Procedure: Up to half of patients with DLB have tau pathology, or “AD copathology” (van der Lee et al, 2021) and such co-pathology may impact response to cholinesterase inhibitors (Graff-Radford et al, 2012). In patients with DLB, plasma phospho-tau (either ptau217 or ptau181) correlates with tau-PET signal in the temporal cortex and predicts abnormal tau-PET status and CSF β-amyloid status (Hall et al, 2021). Accordingly, plasma ptau181 levels were assessed in plasma samples obtained during the screening phase of AscenD-LB. The results on the association of tau pathology to treatment outcome in AscenD-LB are described below.
(§1) Plasma ptau181 levels were determined by SIMOA pTau181 Assay (Quanterix) at the VU Medical Center, where the in-house defined cut-off for tau pathology was set at 2.2 pg/mL.

[2] = tested on: patients with mild-to-moderate DLB; test: AscenD-LB phase 2 study: Timed Up and Go (TUG) test
Procedure: (§2) With the objective of uniformly achieving a target average plasma drug concentration of 20 nM patients, dosing regimen after randomization to neflamapimod or placebo was based on weight: • Weight<80 kg: 40 mg neflamapimod capsule or matching placebo capsule BID • Weight≥80 kg: 40 mg neflamapimod capsule or matching placebo capsule TID
(§3) As a result, efficacy analyses compared: (1) all neflamapimod (i.e., including 40 mg BID and 40 mg TID) vs. placebo; (2) 40 mg TID (dose group that achieved target concentration) vs. placebo; and (3) 40 mg TID vs. placebo TID.
as §1

[3] = tested on: patients with mild-to-moderate DLB; test: AscenD-LB phase 2 study: Attention Composite z-score
Procedure: as §2, §3, §1

[4] = AscenD-LB phase 2 study: plasma drug concentration
Procedure: as §2
Trough plasma drug concentrations 50% lower with 40 mg BID vs. 40 mg TID

[5] = tested on: patients with mild-to-moderate DLB; test: AscenD-LB phase 2 study: International Shopping List Test (ISLT); conditions: patients with baseline plasma ptau181 <2.2 pg/mL, 16 weeks
Procedure: as §2, §3, §1

[6] = tested on: patients with mild-to-moderate DLB; test: AscenD-LB phase 2 study: DLB specific Neuropsychological Test Battery (NTB) z-score
Procedure: as §2, §3, §1

[7] = tested on: patients with mild-to-moderate DLB; test: AscenD-LB phase 2 study: Clinical Dementia Rating Scale sum-of-boxes (CDR-SB)
Procedure: as §2, §3, §1

[8] = 40 mg TID vs. all placebo, patients with baseline plasma ptau181 <2.2 pg/mL, 16 weeks
[9] = 40 mg TID vs. placebo TID, baseline plasma ptau181 < 2.2 pg/mL
[10] = 40 mg TID vs. placebo TID, patients with baseline plasma ptau181 <2.2 pg/mL, 16 weeks
[11] = 40 mg TID vs. placebo, baseline plasma ptau181 < 2.2 pg/mL
[12] = all neflamapimod (40 mg BID and TID) vs. placebo, baseline plasma ptau181 < 2.2 pg/mL
[13] = overall population, 91-patient, 16-week study, main analysis

For `O=c1ncn2nc(Sc3ccc(F)cc3F)ccc2c1-c1c(Cl)cccc1Cl` [neflamapimod, 5-(2,6-dichlorophenyl)-2-(2,4-difluorophenylthio)-6H-pyrimido [1,6-b]pyridazin-6-one], the “treatment effect on NTB z-score, attention z-score, TUG, CDR-SB (descriptive evaluation)” value ([1]; patients below the threshold (2.2 pg/mL) for having tau pathology) was “positive treatment effects”, the “treatment effect on NTB z-score, attention z-score, TUG, CDR-SB (descriptive evaluation)” value ([1]; patients with baseline plasma ptau181 above the threshold (2.2 pg/mL), i.e. with tau pathology) was “no discernible treatment effect” and the “magnitude of treatment effect relative to placebo for the individual endpoints, ptau181 <2.2 pg/mL population compared to overall population” value ([1]; plasma ptau181 <2.2 pg/mL at baseline vs. overall population) was 1.5 to 2.0 fold. For the same compound, the “TUG, difference vs. placebo (LMMRM)” value [2, 8] was -3.1 s, the “Timed up and Go, Effect size, improvement in neflamapimod 40 mg TID vs. placebo TID” value [2, 9] was 0.70 and the “TUG, difference vs. placebo TID (LMMRM)” value [2, 10] was -3.5 s. The “Timed up and Go, Effect size, improvement in neflamapimod 40 mg TID vs. placebo” value [2, 11] was 0.74, the “Timed up and Go, Effect size, improvement in all neflamapimod vs. placebo” value [2, 12] was 0.40 and the “motor function assessed by TUG test, relative to placebo” value [2, 13] was “significant improvement”. The “attention composite z-score, difference vs. placebo (LMMRM)” value [3, 8] was 0.42 z-score, the “Attention, Effect size, improvement in neflamapimod 40 mg TID vs. placebo TID” value [3, 9] was 0.70 and the “attention composite z-score, difference vs. placebo TID (LMMRM)” value [3, 10] was 0.46 z-score. For the same compound, the “Attention, Effect size, improvement in neflamapimod 40 mg TID vs. placebo” value [3, 11] was 0.78, the “Attention, Effect size, improvement in all neflamapimod vs. placebo” value [3, 12] was 0.29 and the “shortfall from target average plasma drug concentration (20 nM)” value ([4]; 40 mg BID (weight <80 kg)) was 30-40%. For the same compound, the “trough plasma drug concentrations, lower with 40 mg BID vs. 40 mg TID” value ([4]; 40 mg BID vs. 40 mg TID) was 50%, the “attainment of target average plasma drug concentration (20 nM)” value ([4]; 40 mg TID (weight ≥80 kg)) was “achieved target plasma drug concentration” and the “ISLD immediate recall, difference vs. placebo (LMMRM)” value ([5]; 40 mg TID vs. all placebo) was 2.1 words. The “ISLD recognition, difference vs. placebo (LMMRM)” value ([5]; 40 mg TID vs. all placebo) was 1.4 words, the “ISLD immediate recall, difference vs. placebo TID (LMMRM)” value ([5]; 40 mg TID vs. placebo TID) was 2.3 words and the “ISLD recognition, difference vs. placebo TID (LMMRM)” value ([5]; 40 mg TID vs. placebo TID) was 0.9 words. For the same compound, the “NTB z-score, difference vs. placebo (LMMRM)” value ([6]; 40 mg TID vs. all placebo, patients with baseline plasma ptau181 <2.2 pg/mL, 16 weeks, not significant) was 0.21, the “NTB, Effect size, improvement in neflamapimod 40 mg TID vs. placebo TID” value [6, 9] was 0.61 and the “NTB z-score, difference vs. placebo TID (LMMRM)” value ([6]; 40 mg TID vs. placebo TID, patients with baseline plasma ptau181 <2.2 pg/mL, 16 weeks, not significant) was 0.25. The “NTB, Effect size, improvement in neflamapimod 40 mg TID vs. placebo” value [6, 11] was 0.56, the “NTB, Effect size, improvement in all neflamapimod vs. placebo” value [6, 12] was 0.15 and the “cognition assessed by NTB, relative to placebo” value [6, 13] was “significant improvement”. For the same compound, the “CDR-SB, difference vs. placebo (LMMRM)” value [7, 8] was −0.60 points, the “CDR-SB, Effect size, improvement in neflamapimod 40 mg TID vs. placebo TID” value [7, 9] was 0.98 and the “CDR-SB, difference vs. placebo TID (LMMRM)” value [7, 10] was −0.93 points. The “CDR-SB, Effect size, improvement in neflamapimod 40 mg TID vs. placebo” value [7, 11] was 0.70, the “CDR-SB, Effect size, improvement in all neflamapimod vs. placebo” value [7, 12] was 0.58 and the “cognition and function assessed by CDR-SB, relative to placebo” value [7, 13] was “significant improvement”.
